SMILES strings stand for the structures.

This data set in a line: Solubility of cannabidiol in alkyl esters of octanoic acid. It counts as physicochemical. The settings on record: in methyl octanoate and/or ethyl octanoate. As for the experimental part: The cannabidiol can be present in an amount of from about 100 mg/mL. The cannabidiol can also be present in an amount up to about 150 mg/mL, 200 mg/ml, 250 mg/mL, 300 mg/mL, or 350 mg/mL, with higher concentrations of cannabidiol being preferred to reduce injection volume and promote ease of administration while reducing patient discomfort. The identity of ingredients and their amounts in the solvent system will determine the actual amount of cannabidiol that can be fully dissolved. […] Therefore, the higher the amount of alkyl ester of fatty acid that is present, the higher the amount of cannabidiol that can be dissolved.

`C=C(C)[C@@H]1CCC(C)=C[C@H]1c1c(O)cc(CCCCC)cc1O` [cannabidiol, Cannabidiol]: the “amount of cannabidiol that can be dissolved” value was “at least 750 mg/mL”.

For the origin of these results see patent US20260034051A1, “STABLE INJECTABLE CANNABIDIOL FORMULATIONS” (CARDIOL THERAPEUTICS INC., priority 2022, published 2026).
